Reference: patent US20260158009A1 (GENZYME CORPORATION, priority 2023, published 2026)

Experiments:
[1] = test system: U937 cells; assay: Cellular assay in U937 cells: activity of RIPK1 inhibitors on TNFα/zVAD.fmk-induced cell death (necroptosis), CellTiter 96 AQueous (MTS) readout; assay type: cell-based; details: Homo sapiens, U-937
How it was run: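 Necroptosis was measured by viable-cell MTS reduction (4 h, absorbance 490 nm) after overnight (18–24 h) 37° C culture. Cell suspensions of U937 cells carried TNFα (100 ng/ml) plus zVAD.fmk (50 μM) before compound was added. A 10-point curve (10 μM–0.26 nM or 1 μM–0.07 nM) was run in duplicate, normalised to the control lacking TNFα/zVAD.fmk.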

[2] = biological target: T1, hRIPK1 (aa 1-375) fusion protein (Homo sapiens, UniProt Q13546); assay: ADP-Glo kinase assay: catalytic activity of RIPK1 (autophosphorylation, conversion of ATP to ADP); assay type: biochemical
T1 construct: hRIPK1 (aa 1-375) fusion protein
T1 sequence (Q13546 1-375): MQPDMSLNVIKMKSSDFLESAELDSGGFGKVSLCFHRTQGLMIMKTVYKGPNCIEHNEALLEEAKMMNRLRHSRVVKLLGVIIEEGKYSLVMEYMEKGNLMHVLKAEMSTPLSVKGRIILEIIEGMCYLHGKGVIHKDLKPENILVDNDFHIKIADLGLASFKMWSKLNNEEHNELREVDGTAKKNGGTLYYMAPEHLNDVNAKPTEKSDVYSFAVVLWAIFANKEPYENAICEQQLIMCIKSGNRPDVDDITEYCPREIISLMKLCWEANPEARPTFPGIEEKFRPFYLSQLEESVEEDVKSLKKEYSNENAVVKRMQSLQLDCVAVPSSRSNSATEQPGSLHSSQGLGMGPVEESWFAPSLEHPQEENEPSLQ
How it was run: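 hRIPK1 (aa 1-375) fusion protein (3.6 μg/ml final) was preincubated 30 min at rt with compound (33300-1.69 nM, 1% DMSO), then 50 μM ATP was added for 240 min at rt. ADP from autophosphorylation was measured by ADP-Glo luminescence and curves fitted by nonlinear regression.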

SMILES | IC50 [1] | IC50 [2]
Cc1nc2ccc(C[C@H]3CC[C@H](C(=O)N4OCC[C@H]4c4ccc(F)c(F)c4)CC3)nn2n1 [compound 310, trans-[(3S)-3-(3,4-difluorophenyl)isoxazolidin-2-yl]-[4-[(2-methyl-[1,2,4]triazolo[1,5-b]pyridazin-6-yl)methyl]cyclohexyl]methanone] | 22 nM | 12 nM
Cn1nccc1C[C@H]1CC[C@H](C(=O)N2OCC[C@H]2c2ccc(F)c(F)c2)CC1 [compound 311, trans-[(3S)-3-(3,4-difluorophenyl)isoxazolidin-2-yl]-[4-[(2-methylpyrazol-3-yl)methyl]cyclohexyl]methanone] | 16 nM | 11 nM
Cc1cc(C[C@H]2CC[C@H](C(=O)N3OCC[C@H]3c3cc(F)cc(C#N)c3)CC2)nc(C)n1 [compound 312, 3-[(3S)-2-[4-[(2,6-dimethylpyrimidin-4-yl)methyl]cyclohexanecarbonyl]isoxazolidin-3-yl]-5-fluoro-benzonitrile] | 20 nM | 38 nM
Cc1cc(C[C@H]2CC[C@H](C(=O)N3OCC[C@H]3c3cc(F)cc(F)c3)CC2)ncn1 [compound 313, trans-[(3S)-3-(3,5-difluorophenyl)isoxazolidin-2-yl]-[4-[(6-methylpyrimidin-4-yl)methyl]cyclohexyl]methanone] | 40 nM | 42 nM
Cc1nc2ccc(C[C@H]3CC[C@H](C(=O)N4OCC[C@H]4c4cc(F)cc(F)c4)CC3)nn2n1 [compound 315, [(3S)-3-(3,5-difluorophenyl)-1,2-oxazolidin-2-yl]-[4-[(2-methyl-[1,2,4]triazolo[1,5-b]pyridazin-6-yl)methyl]cyclohexyl]methanone] | 20 nM | 10 nM
Cc1cnc([C@@H]2CCON2C(=O)[C@H]2CC[C@H](Cc3cc(F)cnc3C)CC2)cn1 [compound 316, trans-[4-[(5-fluoro-2-methyl-3-pyridyl)methyl]cyclohexyl]-[(3S)-3-(5-methylpyrazin-2-yl)isoxazolidin-2-yl]methanone] | 27 nM | 31 nM
Cc1cc2nnc(C)n2cc1C[C@H]1CC[C@H](C(=O)N2OCC[C@H]2c2cccc(F)c2)CC1 [compound 317, trans-[4-[(3,7-dimethyl-[1,2,4]triazolo[4,3-a]pyridin-6-yl)methyl]cyclohexyl]-[(3S)-3-(3-fluorophenyl)isoxazolidin-2-yl]methanone] | 2 nM | 7 nM
Cc1cc2nnc(C)n2cc1C[C@H]1CC[C@H](C(=O)N2OCC[C@H]2c2ccc(F)c(F)c2)CC1 [compound 318, [(3S)-3-(3,4-difluorophenyl)isoxazolidin-2-yl]-[4-[(3,7-dimethyl-[1,2,4]triazolo[4,3-a]pyridin-6-yl)methyl]cyclohexyl]methanone] | 27 nM | 22 nM
Cc1cc(C[C@H]2CC[C@H](C(=O)N3OCC[C@H]3c3ccc(F)cc3)CC2)cn2c(C)nnc12 [compound 319, trans-[4-[(3,8-dimethyl-[1,2,4]triazolo[4,3-a]pyridin-6-yl)methyl]cyclohexyl]-[(3S)-3-(4-fluorophenyl)isoxazolidin-2-yl]methanone] | 33 nM | 14 nM
Cc1nnc2c(F)cc(C[C@H]3CC[C@H](C(=O)N4OCC[C@H]4c4ccc(F)cc4)CC3)cn12 [compound 320, trans-[4-[(8-fluoro-3-methyl-[1,2,4]triazolo[4,3-a]pyridin-6-yl)methyl]cyclohexyl]-[(3S)-3-(4-fluorophenyl)isoxazolidin-2-yl]methanone] | 28 nM | 37 nM
Cc1cn2ncc(C[C@H]3CC[C@H](C(=O)N4OCC[C@H]4c4cccc(C#N)c4)CC3)cc2n1 [compound 322, [2-cyano-4-[(3S)-2-[4-[(2-methylimidazo[1,2-b]pyridazin-7-yl)methyl]cyclohexanecarbonyl]isoxazolidin-3-yl]phenyl]] | 27 nM | 37 nM
Cc1cn2ncc(C[C@H]3CC[C@H](C(=O)N4OCC[C@H]4c4cccc(F)c4)CC3)cc2n1 [compound 323, [2-fluoro-4-[(3S)-2-[4-[(2-methylimidazo[1,2-b]pyridazin-7-yl)methyl]cyclohexanecarbonyl]isoxazolidin-3-yl]phenyl]] | 6 nM | 10 nM
Cc1cn2ncc(C[C@H]3CC[C@H](C(=O)N4OCC[C@H]4c4ccc(F)cc4)CC3)cc2n1 [compound 324, trans-[4-[(3S)-2-[4-[(2-methylimidazo[1,2-b]pyridazin-7-yl)methyl]cyclohexanecarbonyl]isoxazolidin-3-yl]phenyl]] | 35 nM | 34 nM
Cc1ccc([C@@H]2CCON2C(=O)[C@H]2CC[C@H](Cc3cc(C)c4nc(C)nn4c3)CC2)cn1 [compound 325, trans-[4-[(2,8-dimethyl-[1,2,4]triazolo[1,5-a]pyridin-6-yl)methyl]cyclohexyl]-[(3S)-3-(6-methyl-3-pyridyl)isoxazolidin-2-yl]methanone] | 108 nM | 125 nM
Cc1nc2c(C)cc(C[C@H]3CC[C@H](C(=O)N4OCC[C@H]4c4cnccn4)CC3)cn2n1 [compound 326, trans-[4-[(2,8-dimethyl-[1,2,4]triazolo[1,5-a]pyridin-6-yl)methyl]cyclohexyl]-[(3S)-3-pyrazin-2-ylisoxazolidin-2-yl]methanone] | 59 nM | 51 nM
Cc1nc2c(F)cc(C[C@H]3CC[C@H](C(=O)N4OCC[C@H]4c4cnc(C)c(F)c4)CC3)cn2n1 [compound 327, trans-[(3S)-3-(5-fluoro-6-methyl-3-pyridyl)isoxazolidin-2-yl]-[4-[(8-fluoro-2-methyl-[1,2,4]triazolo[1,5-a]pyridin-6-yl)methyl]cyclohexyl]methanone] | 48 nM | 48 nM
Cc1cnc([C@@H]2CCON2C(=O)[C@H]2CC[C@H](Cc3cc(C)c4nc(C)nn4c3)CC2)cn1 [compound 328, trans-[4-[(2,8-dimethyl-[1,2,4]triazolo[1,5-a]pyridin-6-yl)methyl]cyclohexyl]-[(3S)-3-(5-methylpyrazin-2-yl)isoxazolidin-2-yl]methanone; 2,2,2-trifluoroacetic] | 82 nM | 47 nM
Cc1ccc([C@@H]2CCON2C(=O)[C@H]2CC[C@H](Cc3cnc4cnn(C)c4c3)CC2)cn1 [compound 329, trans-[4-[(1-methylpyrazolo[4,3-b]pyridin-6-yl)methyl]cyclohexyl]-[(3S)-3-(6-methylpyridin-3-yl)-1,2-oxazolidin-2-yl]methanone] | 82 nM | 44 nM
Cc1nc2c(C)cc(C[C@H]3CC[C@H](C(=O)N4OCC[C@H]4c4cnc(C)c(F)c4)CC3)cn2n1 [compound 330, trans-[4-[(2,8-dimethyl-[1,2,4]triazolo[1,5-a]pyridin-6-yl)methyl]cyclohexyl]-[(3S)-3-(5-fluoro-6-methylpyridin-3-yl)-1,2-oxazolidin-2-yl]methanone] | 18 nM | 20 nM
Cc1nc2c(C)cc(C[C@H]3CC[C@H](C(=O)N4OCC[C@H]4c4cncc(F)c4)CC3)cn2n1 [compound 331, trans-[4-[(2,8-dimethyl-[1,2,4]triazolo[1,5-a]pyridin-6-yl)methyl]cyclohexyl]-[(3S)-3-(5-fluoropyridin-3-yl)-1,2-oxazolidin-2-yl]methanone] | 20 nM | 15 nM
Cc1cc(C[C@H]2CC[C@H](C(=O)N3OCC[C@H]3c3cnc(C)c(F)c3)CC2)c(C)cn1 [compound 332, trans-[4-[(2,5-dimethylpyridin-4-yl)methyl]cyclohexyl]-[(3S)-3-(5-fluoro-6-methylpyridin-3-yl)-1,2-oxazolidin-2-yl]methanone] | 3 nM | 12 nM
Cc1cncc([C@@H]2CCON2C(=O)[C@H]2CC[C@H](Cc3cc(F)c4nc(C)nn4c3)CC2)c1 [compound 333, trans-[4-[(8-fluoro-2-methyl-[1,2,4]triazolo[1,5-a]333yrdine-6-yl)methyl]cyclohexyl]-[(3S)-3-(5-methylpyridin-3-yl)-1,2-oxazolidin-2-yl]methanone] | 55 nM | 30 nM
Cc1cncc([C@@H]2CCON2C(=O)[C@H]2CC[C@H](Cc3cc(C)c4ncnn4c3)CC2)c1 [compound 334, trans-[(3S)-3-(5-methylpyridin-3-yl)-1,2-oxazolidin-2-yl]-[4-[(8-methyl-[1,2,4]triazolo[1,5-a]pyridin-6-yl)methyl]cyclohexyl]methanone] | 35 nM | 20 nM
Cc1ncc([C@@H]2CCON2C(=O)[C@H]2CC[C@H](Cc3cc(C)c4ncnn4c3)CC2)cc1F [compound 335, trans-[(3S)-3-(5-fluoro-6-methylpyridin-3-yl)-1,2-oxazolidin-2-yl]-[4-[(8-methyl-[1,2,4]triazolo[1,5-a]pyridin-6-yl)methyl]cyclohexyl]methanone] | 11 nM | 27 nM
Cc1cc(C[C@H]2CC[C@H](C(=O)N3OCC[C@H]3c3cncc(F)c3)CC2)cn2ncnc12 [compound 336, trans-[(3S)-3-(5-fluoropyridin-3-yl)-1,2-oxazolidin-2-yl]-[4-[(8-methyl-[1,2,4]triazolo[1,5-a]pyridin-6-yl)methyl]cyclohexyl]methanone] | 10 nM | 17 nM
